Experimental data reported in ChEMBL document CHEMBL1914411, “Synthesis of lipophilic dimeric C-7/C-7-linked ciprofloxacin and C-6/C-6-linked levofloxacin derivatives. Versatile in vitro biological evaluations of monomeric and dimeric fluoroquinolone derivatives as potential antitumor, antibacterial or antimycobacterial agents” (Eur J Med Chem, 2011).
Values after ≈ are worked out from the molar mass of the structure shown. Active and inactive are the calls of the source.

What was measured:
[1] = system: Mycobacterium tuberculosis; experiment: Antimycobacterial activity against Mycobacterium tuberculosis H37Rv assessed as growth inhibition at 0.1 uM after 6 days by MTT colorimetric microassay; type: functional, organism-based
[2] = system: Staphylococcus aureus; experiment: Antimicrobial activity against multidrug-resistant Staphylococcus aureus isolate 1 after 18 to 24 hrs by broth microdilution method; type: functional
[3] = system: Mycobacterium tuberculosis; experiment: Antimycobacterial activity against Mycobacterium tuberculosis H37Rv assessed as growth inhibition at 10 uM after 6 days by MTT colorimetric microassay; type: functional; conditions: for inhibition of growth at 10 µM: 144 h, read-out: GI
[4] = system: Staphylococcus aureus; experiment: Antimicrobial activity against methicillin-resistant Staphylococcus aureus ATCC 33592 after 18 to 24 hrs by broth microdilution method; type: functional
[5] = system: Staphylococcus aureus; experiment: Antimicrobial activity against methicillin-resistant Staphylococcus aureus ATCC 33591 after 18 to 24 hrs by broth microdilution method; type: functional
[6] = system: Staphylococcus aureus; experiment: Antimicrobial activity against Staphylococcus aureus CIP 4.83 after 18 to 24 hrs by broth microdilution method; type: functional
[7] = system: Pseudomonas aeruginosa; experiment: Antimicrobial activity against Pseudomonas aeruginosa CIP 82.118 after 18 to 24 hrs by broth microdilution method; type: functional
[8] = system: Enterococcus hirae; experiment: Antimicrobial activity against Enterococcus hirae CIP 5855 after 18 to 24 hrs by broth microdilution method; type: functional
[9] = system: Staphylococcus aureus; experiment: Antimicrobial activity against multidrug-resistant Staphylococcus aureus isolate 2 after 18 to 24 hrs by broth microdilution method; type: functional
[10] = system: Escherichia coli; experiment: Antimicrobial activity against Escherichia coli CIP 53126 after 18 to 24 hrs by broth microdilution method; type: functional
[11] = system: Mycobacterium tuberculosis; experiment: Antimycobacterial activity against Mycobacterium tuberculosis H37Rv after 6 days by MTT colorimetric microassay; type: functional, organism-based; conditions: 144 h

SMILES	growth inhibition (GI) [1]	MBC [2] [µM]	MIC [2] [µM]	inhibition of growth at 10 µM [3] [%]	MBC [4] [µM]	MIC [4] [µM]	MBC [5] [µM]	MIC [5] [µM]	MBC [6] [µM]	MIC [6] [µM]	MBC [7] [µM]	MIC [7] [µM]	MBC [8] [µM]	MIC [8] [µM]	MBC [9] [µM]	MIC [9] [µM]	MBC [10] [µM]	MIC [10] [µM]	growth inhibition (GI) [3]	also measured
CCCCCCCCC(=O)OCC(=O)N1CCN(c2cc3c(cc2F)c(=O)c(C(=O)O)cn3C2CC2)CC1	inactive	15.6 (≈ 8.26 µg/mL)	7.8 (≈ 4.13 µg/mL)	> 95	0.02 (≈ 0.0106 µg/mL)	0.02 (≈ 0.0106 µg/mL)	0.24 (≈ 0.127 µg/mL)	0.03 (≈ 0.0159 µg/mL)	≤ 0.12	≤ 0.12	250 (≈ 132 µg/mL)	31.2 (≈ 16.5 µg/mL)	≤ 0.97	≤ 0.97	15.6 (≈ 8.26 µg/mL)	7.8 (≈ 4.13 µg/mL)	500 (≈ 265 µg/mL)	62.5 (≈ 33.1 µg/mL)		
O=C(O)c1cn(C2CC2)c2cc(N3CCNCC3)c(F)cc2c1=O [CIPROFLOXACIN]	inactive	62.5 (≈ 20.7 µg/mL)	31.2 (≈ 10.3 µg/mL)		0.97 (≈ 0.321 µg/mL)	0.48 (≈ 0.159 µg/mL)	1.9 (≈ 0.63 µg/mL)	0.97 (≈ 0.321 µg/mL)	≤ 0.97	≤ 0.97	≤ 0.97	≤ 0.97	1.9 (≈ 0.63 µg/mL)	≤ 0.97	31.2 (≈ 10.3 µg/mL)	31.2 (≈ 10.3 µg/mL)	≤ 0.97	≤ 0.97		IC50 [11]: 1600 nM; MIC [11]: 2.5 µM (≈ 0.828 µg/mL)
CCCCCCC(=O)N1CCN(c2cc3c(cc2F)c(=O)c(C(=O)O)cn3C2CC2)CC1	inactive	500 (≈ 222 µg/mL)	62.5 (≈ 27.7 µg/mL)	> 95	0.24 (≈ 0.106 µg/mL)	0.06 (≈ 0.0266 µg/mL)	0.48 (≈ 0.213 µg/mL)	0.06 (≈ 0.0266 µg/mL)	≤ 0.12	≤ 0.03	250 (≈ 111 µg/mL)	62.5 (≈ 27.7 µg/mL)	31.2 (≈ 13.8 µg/mL)	31.2 (≈ 13.8 µg/mL)	> 500	250 (≈ 111 µg/mL)	31.2 (≈ 13.8 µg/mL)	31.2 (≈ 13.8 µg/mL)		
CCCCCCCC(=O)OCC(=O)N1CCN(c2cc3c(cc2F)c(=O)c(C(=O)O)cn3C2CC2)CC1	inactive	500 (≈ 258 µg/mL)	7.8 (≈ 4.02 µg/mL)	> 95	≤ 0.001	≤ 0.001		≤ 0.001	≤ 0.001	≤ 0.001	250 (≈ 129 µg/mL)	31.2 (≈ 16.1 µg/mL)	≤ 0.97	≤ 0.97	15.6 (≈ 8.04 µg/mL)	15.6 (≈ 8.04 µg/mL)	62.5 (≈ 32.2 µg/mL)	31.2 (≈ 16.1 µg/mL)		
CCCCCCCCCCCCCC(=O)OCOC(=O)c1cn2c3c(c(N4CCN(C)CC4)c(F)cc3c1=O)OC[C@@H]2C	inactive			> 95					3.9 (≈ 2.35 µg/mL)	7.8 (≈ 4.69 µg/mL)	250 (≈ 150 µg/mL)	62.5 (≈ 37.6 µg/mL)	15.6 (≈ 9.39 µg/mL)	15.6 (≈ 9.39 µg/mL)			15.6 (≈ 9.39 µg/mL)	15.6 (≈ 9.39 µg/mL)		IC50 [11]: 1300 nM; MIC [11]: 2.5 µM (≈ 1.5 µg/mL)
CCCCCCCCCCC(=O)OCC(=O)N1CCN(c2cc3c(cc2F)c(=O)c(C(=O)O)cn3C2CC2)CC1	inactive	500 (≈ 279 µg/mL)	15.6 (≈ 8.7 µg/mL)	> 95	0.03 (≈ 0.0167 µg/mL)		1.9 (≈ 1.06 µg/mL)	0.97 (≈ 0.541 µg/mL)	≤ 0.97	≤ 0.97	250 (≈ 139 µg/mL)	62.5 (≈ 34.9 µg/mL)	1.9 (≈ 1.06 µg/mL)	≤ 0.97	15.6 (≈ 8.7 µg/mL)	7.8 (≈ 4.35 µg/mL)	250 (≈ 139 µg/mL)	62.5 (≈ 34.9 µg/mL)		
O=C(O)c1cn(C2CC2)c2cc(N3CCN(C(=O)CCCCCCCCCCCCCCCCC(=O)N4CCN(c5cc6c(cc5F)c(=O)c(C(=O)O)cn6C5CC5)CC4)CC3)c(F)cc2c1=O	inactive								500 (≈ 471 µg/mL)	125 (≈ 118 µg/mL)	250 (≈ 235 µg/mL)	125 (≈ 118 µg/mL)	500 (≈ 471 µg/mL)	125 (≈ 118 µg/mL)			500 (≈ 471 µg/mL)	125 (≈ 118 µg/mL)	inactive	
CCCCCCCCC(=O)N1CCN(c2cc3c(cc2F)c(=O)c(C(=O)O)cn3C2CC2)CC1	inactive	500 (≈ 236 µg/mL)	31.2 (≈ 14.7 µg/mL)	> 95	0.24 (≈ 0.113 µg/mL)	0.12 (≈ 0.0566 µg/mL)	0.24 (≈ 0.113 µg/mL)	0.02 (≈ 0.00943 µg/mL)	≤ 0.03	≤ 0.97	250 (≈ 118 µg/mL)	62.5 (≈ 29.5 µg/mL)	31.2 (≈ 14.7 µg/mL)	31.2 (≈ 14.7 µg/mL)	500 (≈ 236 µg/mL)	31.2 (≈ 14.7 µg/mL)	500 (≈ 236 µg/mL)	31.2 (≈ 14.7 µg/mL)		
O=C(CCCCCCCCCCCCCCCCC(=O)OCN1CCN(c2cc3c(cc2F)c(=O)c(C(=O)O)cn3C2CC2)CC1)OCN1CCN(c2cc3c(cc2F)c(=O)c(C(=O)O)cn3C2CC2)CC1	inactive								15.6 (≈ 15.6 µg/mL)	7.8 (≈ 7.81 µg/mL)	250 (≈ 250 µg/mL)	62.5 (≈ 62.6 µg/mL)	125 (≈ 125 µg/mL)	62.5 (≈ 62.6 µg/mL)			31.2 (≈ 31.2 µg/mL)	15.6 (≈ 15.6 µg/mL)	inactive	
O=C(O)c1cn(C2CC2)c2cc(N3CCN(C(=O)CCCCCCCCC(=O)N4CCN(c5cc6c(cc5F)c(=O)c(C(=O)O)cn6C5CC5)CC4)CC3)c(F)cc2c1=O	inactive								250 (≈ 207 µg/mL)	250 (≈ 207 µg/mL)	125 (≈ 104 µg/mL)	62.5 (≈ 51.8 µg/mL)	250 (≈ 207 µg/mL)	250 (≈ 207 µg/mL)			250 (≈ 207 µg/mL)	250 (≈ 207 µg/mL)	inactive	
